Data taken from ChEMBL document CHEMBL4602659, “β,β-Dimethylacrylshikonin Induces Apoptosis in Melanoma Cell Lines by NOXA Upregulation” (J Nat Prod, 2020).
Activity calls are given as the source filed them. No cut-off for these calls is given here.

Columns and labels:
MUGMel2 [1] = assay: Induction of apoptosis in human MUGMel2 cells assessed as necrotic cells at IC50 concentration after 6 hrs by Annexin V/SYTOX Green based flow cytometric analysis (reference value: 0.3%); format: functional
MUGMel2 [2] = assay: Induction of apoptosis in human MUGMel2 cells assessed as effect on PUMA protein expression at IC50 concentration after 24 hrs by Western blot analysis; format: functional, cell-based
WM164 [3] = assay: Induction of apoptosis in human WM164 cells assessed as early apoptotic cells at IC50 concentration after 6 hrs by Annexin V/SYTOX Green based flow cytometric analysis (reference value: 3.01%); format: functional
WM793 [4] = assay: Induction of apoptosis in human WM793 cells assessed as early apoptotic cells at IC50 concentration after 24 hrs by Annexin V/SYTOX Green based flow cytometric analysis (reference value: 2.64%); format: functional
[5] = Toxicity in NU(NCr)-Foxn1 mouse xenografted with WM164 assessed as weight loss at 1 to 4 ug/g administered for three consecutive days with 1 day interval for four cycle; details: in vivo
[6] = Cytotoxicity against human A375-S2 cells assessed as reduction in cell viability after 48 hrs by MTT assay; format: functional, cell-based; details: A375-S2, 48 h
SBcl2 [7] = assay: Antitumour activity against human SBcl2 cells xenografted in NU(NCr)-Foxn1 mouse assessed as increase in caspase -activity at 2 ug/g administered for three consecutive days with 1 day interval for four cycle by hematoxylin and eosin staining based microscopic analysis; format: functional, cell-based
SBcl2 [8] = assay: Cytotoxicity against human SBcl2 cells harboring NRAS Q61I mutant assessed as reduction in cell viability after 24 hrs by EZ4U reagent based spectrophotometric method; format: functional; details: SBcl2, 24 h
MUGMel1 [9] = assay: Induction of apoptosis in human MUGMel1 cells assessed as late apoptotic cells at IC50 concentration after 6 hrs by Annexin V/SYTOX Green based flow cytometric analysis (reference value: 1.04%); format: functional
WM793 [10] = assay: Induction of apoptosis in human WM793 cells assessed as necrotic cells at IC50 concentration after 6 hrs by Annexin V/SYTOX Green based flow cytometric analysis (reference value: 0.32%); format: functional
SBcl2 [11] = assay: Antitumour activity against human SBcl2 cells xenografted in NU(NCr)-Foxn1 mouse assessed as decrease in tumour size at 2 ug/g administered for three consecutive days with 1 day interval for four cycle; format: functional, cell-based
WM793 [12] = assay: Cytotoxicity against human WM793 cells harboring BRAF V600E mutant assessed as reduction in cell viability after 72 hrs by EZ4U reagent based spectrophotometric method; format: functional; details: WM793, 72 h
MUGMel2 [13] = assay: Induction of apoptosis in human MUGMel2 cells assessed as up regulation of NOXA protein expression at IC50 concentration after 24 hrs by Western blot analysis; format: functional, cell-based
SBcl2 [14] = assay: Induction of apoptosis in human SBcl2 cells assessed as viable cells at IC50 concentration after 6 hrs by Annexin V/SYTOX Green based flow cytometric analysis (reference value: 80.68%); format: functional
MUGMel1 [15] = assay: Induction of apoptosis in human MUGMel1 cells assessed as effect on BAD protein expression at IC50 concentration after 24 hrs by Western blot analysis; format: functional, cell-based
WM164 [16] = assay: Induction of apoptosis in human WM164 cells assessed as effect on BAX mRNA expression at IC50 concentration after 6 to 24 hrs by RT-qPCR analysis; format: functional, cell-based
WM793 [17] = assay: Induction of apoptosis in human WM793 cells assessed as effect on BAX mRNA expression at IC50 concentration after 6 to 24 hrs by RT-qPCR analysis; format: functional, cell-based
MUGMel1 [18] = assay: Induction of apoptosis in human MUGMel1 cells assessed as viable cells at IC50 concentration after 6 hrs by Annexin V/SYTOX Green based flow cytometric analysis (reference value: 96.01%); format: functional
SBcl2 [19] = assay: Induction of apoptosis in human SBcl2 cells assessed as up regulation of PMAIP1 at IC50 concentration after 24 hrs by mRNA sequencing method relative to control; format: functional
MUGMel1 [20] = assay: Induction of apoptosis in human MUGMel1 cells assessed as up regulation of NOXA protein expression at IC50 concentration after 24 hrs by Western blot analysis; format: functional, cell-based
WM164 [21] = assay: Induction of apoptosis in human WM164 cells assessed as viable cells at IC50 concentration after 24 hrs by Annexin V/SYTOX Green based flow cytometric analysis (reference value: 94.62%); format: functional
WM164 [22] = assay: Induction of apoptosis in human WM164 cells assessed as effect on BAD mRNA expression at IC50 concentration after 6 to 24 hrs by RT-qPCR analysis; format: functional, cell-based
MRC5 = assay: Cytotoxicity against human MRC5 cells assessed as reduction in cell viability after 72 hrs by EZ4U reagent based spectrophotometric method; format: functional
WM164 [23] = assay: Induction of apoptosis in human WM164 cells assessed as increase in caspase -3 activity at IC50 concentration after 24 hrs by Alexa Fluor 647 antibody based flow cytometric analysis; format: functional, cell-based
MUGMel2 [24] = assay: Induction of apoptosis in human MUGMel2 cells assessed as effect on BAX mRNA expression at IC50 concentration after 6 to 24 hrs by RT-qPCR analysis; format: functional, cell-based
SBcl2 [25] = assay: Induction of apoptosis in human SBcl2 cells assessed as up regulation of BCL2 at IC50 concentration after 6 to 24 hrs by RT-qPCR analysis; format: functional, cell-based
SBcl2 [26] = assay: Cytotoxicity against human SBcl2 cells harboring NRAS Q61I mutant assessed as reduction in cell viability after 48 hrs by EZ4U reagent based spectrophotometric method; format: functional; details: SBcl2, 48 h
MUGMel1 [27] = assay: Induction of apoptosis in human MUGMel1 cells assessed as up regulation of NOXA at IC50 concentration after 6 to 24 hrs by RT-qPCR analysis relative to control; format: functional
WM164 [28] = assay: Induction of apoptosis in human WM164 cells assessed as up regulation of NOXA protein expression at IC50 concentration after 24 hrs by Western blot analysis; format: functional, cell-based
MUGMel2 [29] = assay: Induction of apoptosis in human MUGMel2 cells assessed as early apoptotic cells at IC50 concentration after 24 hrs by Annexin V/SYTOX Green based flow cytometric analysis (reference value: 3.31%); format: functional
MUGMel2 [30] = assay: Induction of apoptosis in human MUGMel2 cells assessed as necrotic cells at IC50 concentration after 24 hrs by Annexin V/SYTOX Green based flow cytometric analysis (reference value: 1.1%); format: functional
MUGMel1 [31] = assay: Induction of apoptosis in human MUGMel1 cells assessed as effect on BAX mRNA expression at IC50 concentration after 6 to 24 hrs by RT-qPCR analysis; format: functional, cell-based
MUGMel2 [32] = assay: Induction of apoptosis in human MUGMel2 cells assessed as early apoptotic cells at IC50 concentration after 6 hrs by Annexin V/SYTOX Green based flow cytometric analysis (reference value: 2.89%); format: functional
WM164 [33] = assay: Induction of apoptosis in human WM164 cells assessed as up regulation of NOXA at IC50 concentration after 6 to 24 hrs by RT-qPCR analysis; format: functional, cell-based
MUGMel2 [34] = assay: Induction of apoptosis in human MUGMel2 cells assessed as viable cells at IC50 concentration after 24 hrs by Annexin V/SYTOX Green based flow cytometric analysis (reference value: 85.95%); format: functional

In the case of `CC(C)=CC[C@@H](OC(=O)C=C(C)C)C1=CC(=O)c2c(O)ccc(O)c2C1=O` [DIMETHYLACRYLSHIKONIN], the Activity (MUGMel2 [1]) is reported as 0.39%, the Activity (MUGMel2 [2]) is reported as “inactive” and the Activity (WM164 [3]) is reported as 2.47%. For the same compound, the Activity (WM793 [4]) was 13.71%, the Activity [5] was “Non-Toxic” and the IC50 [6] was 7.1 µM. The Activity (SBcl2 [7]) was “Active”, the IC50 (SBcl2 [8]) was 1.9 µM and the Activity (MUGMel1 [9]) was 2.36%. For the same compound, the Activity (WM793 [10]) was 0.3%, the Activity (SBcl2 [11]) was “inactive” and the IC50 (WM793 [12]) was 0.7 µM. The Activity (MUGMel2 [13]) was “Active”, the Activity (SBcl2 [14]) was 21.29% and the Activity (MUGMel1 [15]) was “inactive”. For the same compound, the Activity (WM164 [16]) was “inactive”, the Activity (WM793 [17]) was “inactive” and the Activity (MUGMel1 [18]) was 94.02%. The “fold change (FC)” value (SBcl2 [19]) was 1.37, the Activity (MUGMel1 [20]) was “Active” and the Activity (WM164 [21]) was 75.03%. For the same compound, the Activity (WM164 [22]) was “inactive”, the IC50 (MRC5) was “Not Active” and the Activity (WM164 [23]) was “Active”. The Activity (MUGMel2 [24]) was “inactive”, the Activity (SBcl2 [25]) was “Active” and the IC50 (SBcl2 [26]) was 1.1 µM. For the same compound, the “fold change (FC)” value (MUGMel1 [27]) was 2.4, the Activity (WM164 [28]) was “Active” and the Activity (MUGMel2 [29]) was 10.92%. The Activity (MUGMel2 [30]) was 0.16%, the Activity (MUGMel1 [31]) was “inactive” and the Activity (MUGMel2 [32]) was 10.56%. The Activity (WM164 [33]) was “Active” and the Activity (MUGMel2 [34]) was 45.04%.
